# US8748426B2, “Inhibitors of diacylglycerol acyl transferase” (Piramal Enterprises Limited, priority 2009, dated 2014)
# Molecular target: T1, hDGAT1 (Homo sapiens, UniProt O75907)
# T1 sequence (O75907 1-488): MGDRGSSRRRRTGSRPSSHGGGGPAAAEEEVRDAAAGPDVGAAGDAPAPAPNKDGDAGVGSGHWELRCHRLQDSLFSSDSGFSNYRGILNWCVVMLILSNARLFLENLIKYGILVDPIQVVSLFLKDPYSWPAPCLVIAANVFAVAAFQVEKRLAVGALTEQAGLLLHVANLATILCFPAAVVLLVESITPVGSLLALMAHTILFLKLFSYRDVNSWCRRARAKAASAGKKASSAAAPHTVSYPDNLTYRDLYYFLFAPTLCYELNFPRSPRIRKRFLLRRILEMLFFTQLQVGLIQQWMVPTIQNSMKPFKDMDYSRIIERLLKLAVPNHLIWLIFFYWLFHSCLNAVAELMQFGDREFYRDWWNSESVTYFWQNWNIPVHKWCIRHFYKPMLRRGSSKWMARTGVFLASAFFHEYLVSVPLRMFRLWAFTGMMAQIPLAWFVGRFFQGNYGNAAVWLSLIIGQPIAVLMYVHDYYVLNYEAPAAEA
# Assay: In-vitro DGAT1 assay (14C oleoyl CoA, hDGAT1 microsomes from Sf9 cells)
# Settings: at 1 μM
row,Compound,% Inhibition of hDGAT1
1,"O=C(Nc1ccc(-c2ccc3c(c2)C(=O)N(C2(C(=O)O)CC2)C3)cc1)c1ccc(-c2ccccc2)cc1 [Example 586, 1-(6-(4-([1,1′-Biphenyl]-4-ylcarboxamido)phenyl)-1-oxoisoindolin-2-yl)cyclopropanecarboxylic acid]",++ (>50% Inhibition)
2,"O=C(Nc1ccc(-c2ccc3c(c2)C(=O)N([C@@H]2CCC[C@@H]2C(=O)O)C3)cc1)c1ccc(-c2ccccc2)cc1 [Example 594, (1S,2R)-2-(6-(4-([1,1′-Biphenyl]-4-ylcarboxamido)phenyl)-1-oxoisoindolin-2-yl)cyclopentanecarboxylic acid]",++ (>50% Inhibition)
3,"O=C(Nc1ccc(-c2ccc3c(c2)C(=O)N([C@@H]2CCC[C@@H]2C(=O)O)C3)cc1)c1ccc(C(F)(F)F)cc1 [Example 598, (1S,2R)-2-(1-Oxo-6-(4-(4-(trifluoromethyl)benzamido)phenyl)isoindolin-2-yl)cyclopentanebcarboxylic acid]",++ (>50% Inhibition)
4,"CC(C)[C@@H](C(=O)O)N1Cc2ccc(-c3ccc(NC(=O)c4ccc(-c5ccccc5)cc4)cc3F)cc2C1=O [Example 602, (S)-2-(6-(4-([1,1′-Biphenyl]-4-ylcarboxamido)-2-fluorophenyl)-1-oxoisoindolin-2-yl)-3-methylbutanoic acid]",++ (>50% Inhibition)
5,CC(C)[C@@H](C(=O)O)N1Cc2ccc(-c3ccc(NC(=O)c4cnc5ccccc5c4)cc3)cc2C1=O [Example 651],+ (10-50% Inhibition)

# Same assay, conditions: read-out: % Inhibition of hDGAT1
row,Compound,inhibition at 1 µM [%]
1,"Cc1ccc(C(=O)Nc2ccc(-c3ccc4c(c3)C(=O)N(C3(C(=O)O)CCC3)C4)cc2)cc1 [Example 582, 1-(6-(4-(4-Methylbenzamido)phenyl)-1-oxoisoindolin-2-yl)cyclobutane carboxylic acid]",> 50
2,"O=C(Nc1ccc(-c2ccc3c(c2)C(=O)N(C2(C(=O)O)CC2)C3)cc1)c1ccc(Cl)cc1 [Example 588, 1-(6-(4-(4-Chlorobenzamido)phenyl)-1-oxoisoindolin-2-yl)cyclopropane carboxylic acid]",> 50
3,"O=C(Nc1ccc(-c2ccc3c(c2)C(=O)N(C2(C(=O)O)CC2)C3)cc1)c1ccc(C(F)(F)F)cc1 [Example 590, 1-(1-Oxo-6-(4-(4-(trifluoromethyl)benzamido)phenyl)isoindolin-2-yl)cyclo propane carboxylic acid]",> 50
4,"O=C(Nc1ccc(-c2ccc3c(c2)C(=O)N([C@@H]2CCC[C@@H]2C(=O)O)C3)cc1)c1ccc(Cl)cc1 [Example 596, (1S,2R)-2-(6-(4-(4-Chlorobenzamido)phenyl)-1-oxoisoindolin-2-yl)cyclopentane carboxylic acid]",> 50
5,"CC(C)[C@@H](C(=O)O)N1Cc2ccc(-c3ccc(NC(=O)c4ccc(C(C)(C)C)cc4)cc3F)cc2C1=O [Example 604, (S)-2-(6-(4-(4-(tert-Butyl)benzamido)-2-fluorophenyl)-1-oxoisoindolin-2-yl)-3-methylbutanoic acid]",> 50
6,"CC(C)[C@@H](C(=O)O)N1Cc2ccc(-c3ccc(NC(=O)c4ccc(Cl)cc4)cc3F)cc2C1=O [Example 606, (S)-2-(6-(4-(4-Chlorobenzamido)-2-fluorophenyl)-1-oxoisoindolin-2-yl)-3-methyl butanoic acid]",10 to 50
7,"CC(C)[C@@H](C(=O)O)N1Cc2ccc(-c3ccc(NC(=O)c4ccc(OC(F)(F)F)cc4)cc3F)cc2C1=O [Example 608, (S)-2-(6-(2-Fluoro-4-(4-(trifluoromethoxy)benzamido)phenyl)-1-oxoisoindolin-2-yl)-3-methylbutanoic acid]",> 50
8,"CCCCCc1ccc(C(=O)Nc2ccc(-c3ccc4c(c3)C(=O)N([C@H](C(=O)O)C(C)C)C4)c(F)c2)cc1 [Example 610, (S)-2-(6-(2-Fluoro-4-(4-pentylbenzamido)phenyl)-1-oxoisoindolin-2-yl)-3-methyl butanoic acid]",> 50
9,"CC(C)[C@@H](C(=O)O)N1Cc2ccc(-c3ccc(NC(=O)c4ncc(-c5ccccc5)s4)cc3)cc2C1=O [Example 612, (S)-3-Methyl-2-(1-oxo-6-(4-(5-phenylthiazole-2-carboxamido)phenyl)isoindolin-2-yl)butanoic acid]",> 50
10,"CC(C)[C@@H](C(=O)O)N1Cc2ccc(-c3ccc(NC(=O)c4cc(-c5ccc(C(F)(F)F)cc5)no4)cc3)cc2C1=O [Example 620, (S)-3-Methyl-2-(1-oxo-6-(4-(3-(4-(trifluoromethyl)phenyl)isoxazole-5-carboxamido)phenyl)isoindolin-2-yl)butanoic acid]",> 50
11,"CC(C)[C@@H](C(=O)O)N1Cc2ccc(-c3ccc(NC(=O)c4nnc(-c5ccccc5)[nH]4)cc3)cc2C1=O [Example 629, (S)-3-Methyl-2-(1-oxo-6-(4-(5-phenyl-4H-1,2,4-triazole-3-carboxamido)phenyl)isoindolin-2-yl)butanoic acid]",10 to 50
12,"CC(C)[C@@H](C(=O)O)N1Cc2ccc(-c3ccc(NC(=O)c4ccc(-c5nccs5)cc4)cc3)cc2C1=O [Example 647, (S)-3-Methyl-2-(1-oxo-6-(4-(4-(thiazol-2-yl)benzamido)phenyl)isoindolin-2-yl)butanoic acid]",> 50

# More lines, now with the values ahead:
row,inhibition at 1 µM [%],Compound
1,> 50,"CC(C)[C@@H](C(=O)O)N1Cc2ccc(-c3ccc(NC(=O)c4ncc(-c5ccccc5)o4)cc3)cc2C1=O [Example 614, (S)-3-Methyl-2-(1-oxo-6-(4-(5-phenyloxazole-2-carboxamido)phenyl)isoindolin-2-yl)butanoic acid]"
2,> 50,"CC(C)[C@@H](C(=O)O)N1Cc2ccc(-c3ccc(NC(=O)c4cc(-c5ccc(F)cc5)no4)cc3)cc2C1=O [Example 616, (S)-2-(6-(4-(3-(4-Fluorophenyl)isoxazole-5-carboxamido)phenyl)-1-oxoisoindolin-2-yl)-3-methylbutanoic acid]"
3,> 50,"CC(C)[C@@H](C(=O)O)N1Cc2ccc(-c3ccc(NC(=O)c4cc(-c5ccc(Cl)cc5)no4)cc3)cc2C1=O [Example 618, (S)-2-(6-(4-(3-(4-Chlorophenyl)isoxazole-5-carboxamido)phenyl)-1-oxoisoindolin-2-yl)-3-methylbutanoic acid]"
4,> 50,"CC(C)[C@@H](C(=O)O)N1Cc2ccc(-c3ccc(NC(=O)c4ccc(-c5cnco5)cc4)cc3)cc2C1=O [Example 622, (S)-3-Methyl-2-(6-(4-(4-(oxazol-5-yl)benzamido)phenyl)-1-oxoisoindolin-2-yl)butanoic acid]"
5,> 50,"CC(C)[C@@H](C(=O)O)N1Cc2ccc(-c3ccc(NC(=O)c4nc(-c5ccccc5)cs4)cc3)cc2C1=O [Example 624, (S)-3-Methyl-2-(1-oxo-6-(4-(4-phenylthiazole-2-carboxamido)phenyl)isoindolin-2-yl)butanoic acid]"
6,> 50,"CC(C)[C@@H](C(=O)O)N1Cc2ccc(-c3ccc(NC(=O)c4nnc(-c5ccccc5)s4)cc3)cc2C1=O [Example 627, (S)-3-Methyl-2-(1-oxo-6-(4-(5-phenyl-1,3,4-thiadiazole-2-carboxamido)phenyl)isoindolin-2-yl)butanoic acid]"
7,> 50,"CC(C)[C@@H](C(=O)O)N1Cc2ccc(-c3ccc(NC(=O)c4ccc(C(C)(C)C#N)cc4)cc3)cc2C1=O [Example 631, (S)-2-(6-(4-(4-(2-Cyanopropan-2-yl)benzamido)phenyl)-1-oxoisoindolin-2-yl)-3-methylbutanoic acid]"
8,> 50,"CCC(C#N)(CC)c1ccc(C(=O)Nc2ccc(-c3ccc4c(c3)C(=O)N([C@H](C(=O)O)C(C)C)C4)cc2)cc1 [Example 633, (S)-2-(6-(4-(4-(3-Cyanopentan-3-yl)benzamido)phenyl)-1-oxoisoindolin-2-yl)-3-methylbutanoic acid]"
9,> 50,"CC(C)[C@@H](C(=O)O)N1Cc2ccc(-c3ccc(NC(=O)c4ncc(-c5ccccc5)o4)cn3)cc2C1=O [Example 635, (S)-3-Methyl-2-(1-oxo-6-(5-(5-phenyloxazole-2-carboxamido)pyridin-2-yl)isoindolin-2-yl)butanoic acid]"
10,> 50,"CC(C)[C@@H](C(=O)O)N1Cc2ccc(-c3ccc(NC(=O)c4ncc(-c5ccccc5)s4)cn3)cc2C1=O [Example 637, (S)-3-Methyl-2-(1-oxo-6-(5-(5-phenylthiazole-2-carboxamido)pyridin-2-yl)isoindolin-2-yl)butanoic acid]"
11,> 50,"CC(C)[C@@H](C(=O)O)N1Cc2ccc(-c3ccc(NC(=O)c4cc(-c5ccc(F)cc5)no4)cn3)cc2C1=O [Example 639, (S)-2-(6-(5-(3-(4-Fluorophenyl)isoxazole-5-carboxamido)pyridin-2-yl)-1-oxoisoindolin-2-yl)-3-methylbutanoic acid]"
12,> 50,"Cc1oc(-c2ccccc2)nc1C(=O)Nc1ccc(-c2ccc3c(c2)C(=O)N([C@H](C(=O)O)C(C)C)C3)cc1 [Example 643, (S)-3-Methyl-2-(6-(4-(5-methyl-2-phenyloxazole-4-carboxamido)phenyl)-1-oxoisoindolin-2-yl)butanoic acid]"
13,> 50,"CCCCc1ccc(C(=O)Nc2ccc(-c3ccc4c(c3)C(=O)N([C@H](C(=O)O)C(C)C)C4)cc2)nc1 [Example 649, (S)-2-(6-(4-(5-Butylpicolinamido)phenyl)-1-oxoisoindolin-2-yl)-3-methylbutanoic acid]"
